US4593090A, “Novel nitrosourea compounds, method for preparing same, and pharmaceutical composition containing same” (Gogo Kimura, priority 1981, dated 1986)

How the values were obtained:
[1] = tested on: Leukemia L1210; assay: Activity against Leukemia L1210, intraperitoneal, increase in life span of mice; type: in vivo, female mice (BDF1 family); details: for ED (maximum ILS) / ED30: Mus musculus, L1210, ip, ip once a day for 5 successive days; for ED (maximum ILS): daily dosage giving maximum increase of life span, read-out: O.D. (optimum dosage); for ED30: daily dosage increasing average survival days by 30%, read-out: ILS30; for Survivors after 60 days / Max. ILS % / Therapeutic ratio TR: ip; for Survivors after 60 days: 6-membered group; for Max. ILS %: 60-day observation, versus control; for Therapeutic ratio TR: O.D./ILS30
Summary of the method: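 Dosing started 24 h after ip implantation of 1×10^5 L1210 cells into groups of 6 female BDF1 mice, by ip or oral route daily for 5 consecutive days. Survival was followed for 60 days; increase in life span was scored against untreated mice, with therapeutic ratio from optimum dose over ILS30 dose.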

[2] = Acute toxicity (LD50, Behrens-Karber method); type: in vivo, ICR mice; details: mouse, in vivo, ip, mortality during 30 days
Experimental: Test compounds, dissolved or suspended in 0.5% aqueous CMC, were each intraperitoneally administered to ICR mice in a dose of 0.1 ml per 10 g body weight. LD50 (mg/kg) value of each test compound was calculated from the mortality of mice during 30 days by the Behrens-Karber method.

SMILES	ED (maximum ILS) [1]	ED30 [1]	Survivors after 60 days [1]	Max. ILS % [1]	Therapeutic ratio TR [1]	LD50 at 720 h [2]
CC(C)CO[C@@H]1OC[C@H](N(C(=O)N(CCCl)N=O)C2CCCCC2)[C@H](O)[C@H]1O [Compound 152]	170 mg/kg	4.31 mg/kg	4/6	> 425%	43.1	550 mg/kg
COCCCN(C(=O)N(CCCl)N=O)[C@H]1CO[C@@H](OCC(C)C)[C@H](O)[C@H]1O [Compound 154, 3-(3-methoxy-n-propyl)-3-(isobutyl α-L-arabinopyranose-4-yl)-1-(2-chloroethyl)-1-nitrosourea]	160 mg/kg	2.85 mg/kg	5/6	> 620%	56.1	500 mg/kg
COCCN(C(=O)N(CCCl)N=O)[C@H]1[C@H](OC2CCCCC2)OC[C@H](O)[C@@H]1O [Compound 155, 3-(2-methoxyethyl)-3-(cyclohexyl α-L-arabinopyranose-2-yl)-1-(2-chloroethyl)-1-nitrosourea]	160 mg/kg	2.64 mg/kg	6/6	> 700%	60.6	520 mg/kg
CCC(C)O[C@@H]1OC[C@H](O)[C@H](O)[C@H]1N(CCCOC)C(=O)N(CCCl)N=O (stereo partly drawn) [Compound 158, 3-(3-methoxy-n-propyl)-3-(sec-butyl α-L-arabinopyranose-2-yl)-1-(2-chloroethyl)-1-nitrosourea]	170 mg/kg	3.21 mg/kg	6/6	> 700%	53.0	530 mg/kg
COCCCN(C(=O)N(CCCl)N=O)[C@@H]1CO[C@H](OC2CCCCC2)[C@@H](O)[C@@H]1O [Compound 160, 3-(3-methoxy-n-propyl)-3-(cyclohexyl α-D-arabinopyranose-4-yl)-1-(2-chloroethyl)-1-nitrosourea]	180 mg/kg	3.1 mg/kg	6/6	> 700%	58.1	550 mg/kg
CC(C)CN(C(=O)N(CCCl)N=O)[C@@H]1[C@H](OC2CCCCC2)O[C@H](CO)[C@H]1O [Compound 162, 3-isobutyl-3-(cyclohexyl β-D-arabinofuranose-2-yl)-1-(2-chloroethyl)-1-nitrosourea]	160 mg/kg	5.63 mg/kg	3/6	> 350%	28.4	500 mg/kg
CC(C)CN(C(=O)N(CCCl)N=O)[C@H]1[C@H](O)[C@H](OC2CCCCC2)O[C@@H]1CO [Compound 163, 3-isobutyl-3-(cyclohexyl β-D-arabinofuranose-3-yl)-1-(2-chloroethyl)-1-nitrosourea]	160 mg/kg	4.91 mg/kg	3/6	> 365%	32.6	550 mg/kg
COCCCN(C(=O)N(CCCl)N=O)[C@@H]1[C@@H](O)[C@@H](OCC(C)C)O[C@@H]1CO [Compound 165, 3-(3-methoxy-n-propyl)-3-(isobutyl α-D-xylofuranose-3-yl)-1-(2-chloroethyl)-1-nitrosourea]	160 mg/kg	5.57 mg/kg	3/6	> 340%	28.7	480 mg/kg
CC(C)CN(C(=O)N(CCCl)N=O)[C@H]1[C@@H](OC2CCCCC2)O[C@H](CO)[C@@H]1O [Compound 166, 3-isobutyl-3-(cyclohexyl α-D-xylofuranose-2-yl)-1-(2-chloroethyl)-1-nitrosourea]	150 mg/kg	4.75 mg/kg	3/6	> 345%	31.6	450 mg/kg
COCCCO[C@@H]1O[C@H](CN(CCCOC)C(=O)N(CCCl)N=O)[C@@H](O)[C@H]1O [Compound 168, 3-(3-methoxy-n-propyl)-3-(3-methoxy-n-propyl β-D-ribofuranose-5-yl)-1-(2-chloroethyl)-1-nitrosourea]	160 mg/kg	3.3 mg/kg	4/6	> 425%	48.5	500 mg/kg
CC(C)CN(C[C@H]1O[C@@H](OC2CCCCC2)[C@H](O)[C@@H]1O)C(=O)N(CCCl)N=O [Compound 169, 3-isobutyl-3-(cyclohexyl β-D-ribofuranose-5-yl)-1-(2-chloroethyl)-1-nitrosourea]	180 mg/kg	3.9 mg/kg	4/6	> 420%	46.2	550 mg/kg
COCC(C)N(C[C@H]1O[C@H](OC2CCCC2)[C@H](O)[C@@H](O)[C@@H]1O)C(=O)N(CCCl)N=O (stereo partly drawn) [Compound 172, 3-(1-methy-2-methoxyethyl)-3-(cyclopentyl α-D-glucopyranose-6-yl)-1-(2-chloroethyl)-1-nitrosourea]	180 mg/kg	2.67 mg/kg	6/6	> 700%	67.3	600 mg/kg
CC(C)(C)O[C@H]1O[C@H](CN(C(=O)N(CCCl)N=O)C2CCCCC2)[C@@H](O)[C@H](O)[C@H]1O [Compound 173, 3-cyclohexyl-3-(tert-butyl α-D-glucopyranose-6-yl)-1-(2-chloroethyl)-1-nitrosourea]	160 mg/kg	3.16 mg/kg	5/6	> 630%	50.6	510 mg/kg
CC(C)CO[C@@H]1O[C@H](CO)[C@@H](O)[C@H](O)[C@H]1N(C(=O)N(CCCl)N=O)C(C)(C)C [Compound 176, 3-tert-butyl-3-(isobutyl β-D-glucopyranose-2-yl)-1-(2-chloroethyl)-1-nitrosourea]	180 mg/kg	5.9 mg/kg	6/6	> 700%	30.5	620 mg/kg
C=C(C)CO[C@H]1O[C@H](CN(C(=O)N(CCCl)N=O)C(C)(C)C)[C@@H](O)[C@H](O)[C@H]1O [Compound 177, 3-tert-butyl-3-(2-methyl-2-propenyl α-D-glucopyranose-6-yl)-1-(2-chloroethyl)-1-nitrosourea]	180 mg/kg	2.75 mg/kg	6/6	> 700%	65.4	550 mg/kg
COc1ccc(CO[C@H]2O[C@H](CN(C(=O)N(CCCl)N=O)C(C)(C)C)[C@@H](O)[C@H](O)[C@H]2O)cc1 [Compound 182, 3-tert-butyl-3-(p-methoxybenzyl α-D-glucopyranose-6-yl)-1-(2-chloroethyl)-1-nitrosourea]	140 mg/kg	3.49 mg/kg	5/6	> 620%	40.1	420 mg/kg
CC(C)CO[C@@H]1O[C@H](CN(CC(C)(C)C)C(=O)N(CCCl)N=O)[C@@H](O)[C@H](O)[C@H]1O [Compound 184, 3-neopentyl-3-(isobutyl β-D-glucopyranose-6-yl)-1-(2-chloroethyl)-1-nitrosourea]	170 mg/kg	2.93 mg/kg	6/6	> 700%	58.0	540 mg/kg
CCOCCO[C@H]1O[C@H](CN(CC(C)(C)C)C(=O)N(CCCl)N=O)[C@@H](O)[C@H](O)[C@H]1O [Compound 187, 3-neopentyl-3-(2-ethoxyethyl α-D-glucopyranose-6-yl)-1-(2-choroethyl)-1-nitrosourea]	160 mg/kg	2.66 mg/kg	6/6	> 700%	60.2	510 mg/kg
CC(C)CO[C@@H]1O[C@H](CN(CCC(C)(C)C)C(=O)N(CCCl)N=O)[C@@H](O)[C@H](O)[C@H]1O [Compound 189, 3-(3,3-dimethyl-n-butyl)-2-(isobutyl β-D-glucopyranose-6-yl)-1-(2-chloroethyl)-1-nitrosourea]	150 mg/kg	3.1 mg/kg	6/6	> 700%	48.4	480 mg/kg
CCC(C)O[C@H]1O[C@H](CN(CCC(C)(C)C)C(=O)N(CCCl)N=O)[C@@H](O)[C@H](O)[C@H]1O (stereo partly drawn) [Compound 190, 3-(3,3-dimethyl-n-butyl)-3-(sec-butyl α-D-glucopyranose-6-yl)-1-(2-chloroethyl)-1-nitrosourea]	150 mg/kg	3.12 mg/kg	6/6	> 700%	48.1	470 mg/kg
CCCC(OC)O[C@H]1O[C@H](CN(CCC(C)(C)C)C(=O)N(CCCl)N=O)[C@@H](O)[C@H](O)[C@H]1O (stereo partly drawn) [Compound 191, 3-(3,3-dimethyl-n-butyl)-3-(1-methoxy-n-butyl α-D-glucopyranose-6-yl)-1-(2-chloroethyl)-1-nitrosourea]	160 mg/kg	2.64 mg/kg	6/6	> 700%	60.6	560 mg/kg
